For 28 molecules, remaining activity results are on record in PubChem BioAssay AID624008 (Vanderbilt Specialized Chemistry Center, 2012).

Each structure is given as a SMILES string. The source made the active and inactive calls. No rule for the calls is given here.

The target of the experiment is Phospholipase D1 (Homo sapiens) + Phospholipase D1 (Homo sapiens) (UniProt Q13393+Q13393). The experiment can be described thus: cellular PLD1 inhibitors, Calu-1 cells, Lib32, assay 1A (AID 624008). The conditions noted are these: percent of control, stronger effect = lower value, concentration not given here.
Sequence of Phospholipase D1 (Homo sapiens) + Phospholipase D1 (Homo sapiens) (Q13393 whole entry, looked up): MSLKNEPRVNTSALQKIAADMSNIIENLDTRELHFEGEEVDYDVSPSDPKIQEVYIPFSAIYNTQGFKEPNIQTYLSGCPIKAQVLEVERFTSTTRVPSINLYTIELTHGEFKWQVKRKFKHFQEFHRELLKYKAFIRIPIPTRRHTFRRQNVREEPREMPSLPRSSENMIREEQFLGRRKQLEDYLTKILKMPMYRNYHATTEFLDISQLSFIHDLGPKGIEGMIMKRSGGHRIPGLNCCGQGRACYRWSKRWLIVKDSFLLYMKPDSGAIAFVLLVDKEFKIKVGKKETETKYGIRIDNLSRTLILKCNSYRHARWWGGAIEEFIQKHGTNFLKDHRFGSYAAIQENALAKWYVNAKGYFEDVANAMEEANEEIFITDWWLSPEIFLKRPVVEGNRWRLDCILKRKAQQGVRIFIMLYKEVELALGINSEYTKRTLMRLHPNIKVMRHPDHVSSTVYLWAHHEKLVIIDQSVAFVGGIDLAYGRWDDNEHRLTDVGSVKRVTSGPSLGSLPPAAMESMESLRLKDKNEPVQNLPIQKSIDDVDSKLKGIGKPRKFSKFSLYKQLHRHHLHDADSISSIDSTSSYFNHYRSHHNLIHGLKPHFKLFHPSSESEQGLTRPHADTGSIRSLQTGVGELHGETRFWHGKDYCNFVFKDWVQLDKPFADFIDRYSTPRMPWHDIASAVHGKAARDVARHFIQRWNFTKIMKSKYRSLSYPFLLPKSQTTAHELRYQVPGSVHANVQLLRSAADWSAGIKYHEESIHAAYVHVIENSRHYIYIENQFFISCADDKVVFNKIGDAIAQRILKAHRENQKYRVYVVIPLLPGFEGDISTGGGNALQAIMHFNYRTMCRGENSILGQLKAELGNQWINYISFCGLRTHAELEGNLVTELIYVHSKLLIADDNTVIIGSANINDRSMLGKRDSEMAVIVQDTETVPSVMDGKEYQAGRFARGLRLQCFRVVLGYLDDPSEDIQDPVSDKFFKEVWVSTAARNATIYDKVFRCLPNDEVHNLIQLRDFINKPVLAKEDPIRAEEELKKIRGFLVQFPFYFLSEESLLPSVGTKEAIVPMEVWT
Sequence of Phospholipase D1 (Homo sapiens) + Phospholipase D1 (Homo sapiens) (Q13393 whole entry, looked up): as above

For orientation: remaining activity means the signal under treatment as a percentage of the control signal. For the molecule `C[C@@H](CN1CCC2(CC1)C(=O)NCN2c1cccc(F)c1)NC(=O)c1ccc(F)c(F)c1`, the remaining activity was 10.1%. The same measure for `C[C@@H](CN1CCC2(CC1)C(=O)NCN2c1cccc(F)c1)NC(=O)c1ccc(F)cc1F`: 28.8%. In the case of `C[C@@H](CN1CCC2(CC1)C(=O)NCN2c1cccc(F)c1)NC(=O)c1ccc(Br)cc1` it was 10.2%; in that of `O=C(NCCN1CCC2(CC1)C(=O)NCN2c1cccc(F)c1)c1cccc2c1OCO2`, 102% (inactive). The same measure for `O=C(NCCN1CCC2(CC1)C(=O)NCN2c1cccc(F)c1)c1ccc(F)cc1`: 102% (inactive); for `COc1cc(C(=O)N[C@@H](C)CN2CCC3(CC2)C(=O)NCN3c2cccc(F)c2)cc(OC)c1OC`: 9.86%.

For `O=C(c1ccc(F)cc1)N(CCN1CCC2(CC1)C(=O)NCN2c1cccc(F)c1)C(=O)c1ccc(F)cc1`, the remaining activity is 109% (inactive). The same measure for `O=C(NCCN1CCC2(CC1)C(=O)NCN2c1cccc(F)c1)c1cccc2ccccc12`: 102% (inactive); for `C[C@@H](CN1CCC2(CC1)C(=O)NCN2c1cccc(F)c1)NC(=O)c1c(F)cccc1F`: 75.1%.

As to `O=C(NCCN1CCC2(CC1)C(=O)NCN2c1cccc(F)c1)c1cccc([N+](=O)[O-])c1`, the remaining activity is 101% (inactive). `C[C@@H](CN1CCC2(CC1)C(=O)NCN2c1cccc(F)c1)NC(=O)c1cccc2ccccc12`: the remaining activity is 64.5%.

With `O=C(NCCN1CCC2(CC1)C(=O)NCN2c1cccc(F)c1)c1ccc(Cl)cc1Cl`, the remaining activity is 107% (inactive).

`C[C@@H](CN1CCC2(CC1)C(=O)NCN2c1cccc(F)c1)NC(=O)c1c(F)ccc(F)c1Cl`: the remaining activity was 81.7% (inactive). The same measure for `C[C@@H](CN1CCC2(CC1)C(=O)NCN2c1cccc(F)c1)NC(=O)c1ccc(F)cc1`: 24%; for `O=C(NCCN1CCC2(CC1)C(=O)NCN2c1cccc(F)c1)c1cccc(C(F)(F)F)c1`: 94.8% (inactive). In the case of `O=C(NCCN1CCC2(CC1)C(=O)NCN2c1cccc(F)c1)c1ccc(Br)cc1` it was 98.5% (inactive); in that of `O=C(NCCN1CCC2(CC1)C(=O)NCN2c1cccc(F)c1)c1ccccn1`, 93.5% (inactive). The same measure for `O=C(Cc1ccc(F)cc1)NCCN1CCC2(CC1)C(=O)NCN2c1cccc(F)c1`: 99.3% (inactive).

For `COc1cc(C(=O)NCCN2CCC3(CC2)C(=O)NCN3c2cccc(F)c2)cc(OC)c1OC`, the remaining activity was 113% (inactive). In the case of `C[C@@H](CN1CCC2(CC1)C(=O)NCN2c1cccc(F)c1)NC(=O)c1ccc(Cl)cc1Cl` it was 71.6%; in that of `O=C(NCCN1CCC2(CC1)C(=O)NCN2c1cccc(F)c1)c1ccc(F)cc1F`, 99% (inactive). The same measure for `C[C@@H](CN1CCC2(CC1)C(=O)NCN2c1cccc(F)c1)NC(=O)c1ccccc1I`: 91.6% (inactive); for `C[C@@H](CN1CCC2(CC1)C(=O)NCN2c1cccc(F)c1)NC(=O)c1cccc(F)c1`: 45.7%.

Regarding `O=C(NCCN1CCC2(CC1)C(=O)NCN2c1cccc(F)c1)c1ccccc1I`, the remaining activity was 99.7% (inactive). In the case of `C[C@@H](CN1CCC2(CC1)C(=O)NCN2c1cccc(F)c1)NC(=O)c1cccc(C(F)(F)F)c1` it was 82.3% (inactive); in that of `C[C@@H](CN1CCC2(CC1)C(=O)NCN2c1cccc(F)c1)NC(=O)Cc1ccc(F)cc1`, 102% (inactive). In the case of `C[C@@H](CN1CCC2(CC1)C(=O)NCN2c1cccc(F)c1)NC(=O)c1cccc([N+](=O)[O-])c1` it was 28.6%. The same measure for `O=C(NCCN1CCC2(CC1)C(=O)NCN2c1cccc(F)c1)c1c(F)ccc(F)c1Cl`: 106% (inactive).
